Source: patent publication US6528525B1, “Amidocarboxylic acid derivatives” (Sankyo Company, Limited, priority 1998, dated 2003)

Test system: hyperglycemic male KK mice
Assay: Action in depressing blood glucose (Method 1)
Format: in vivo
Conditions: Mus musculus, po, 72 h, compound admixed with powder feed at 0.01% (ca. 10 mg/kg/day) for three days, plasma glucose vs control group, read-out: Rate of hypoglycemic activity (%) (blood glucose depression rate)
Procedure: Action in Depressing Blood Glucose (Method 1)
Each compound, admixed with powder feed F-2 (Funabashi Farm) was administered to hyperglycemic male KK mice each having a body weight of 40 g or more at a rate of 0.01% (ca. 10 mg/kg/day) for three days. Meanwhile, mice of a control group were fed with the powder feed only. Then, a blood sample was collected from the caudal vein of each mouse under no anesthesia and centrifuged. The blood glucose in the plasma thus obtained was determined using Glucoloader F (Product of A & T Co., Ltd.).
The blood glucose depression rate were estimated from the following equation:
Blood glucose depression rate (%)=[(Blood glucose in Control group−Blood glucose in administered group)/Blood glucose in Control group]×100

Structure (SMILES)	inhibition in vivo at 10 mg/kg/day
CCOC(Cc1ccc(OCCNC(=O)c2ccc(-c3ccccn3)cc2)cc1)C(=O)O (centres unmarked) [Example 2, Sodium 2-ethoxy-3-[4-[2-(4-pyridine-2-ylbenzoylamino)ethoxy]phenyl]propionate]	43%
O=C(NCCOc1ccc(CC(CCCc2ccccc2)C(=O)O)cc1)c1ccc(-c2ccccn2)cc1 (centres unmarked) [Example 4, 2-(3-phenylpropyl)-3-[4-[2-(4-pyridine-2-ylbenzoylamino)ethoxy]phenyl]propionic acid]	15%
CC(C)c1ccc(OC(Cc2ccc(OCCNC(=O)c3ccc(-c4ccccn4)cc3)cc2)C(=O)O)cc1 (centres unmarked) [Example 10, 2-(4-isopropylphenoxy)-3-[4-[2-(4-pyridine-2-ylbenzoylamino)ethoxy]phenyl]propionic acid]	64%
CCCCC(Cc1ccc(OCCNC(=O)c2ccc(-c3ccccn3)cc2)cc1)C(=O)O (centres unmarked) [Example 12, 2-butyl-3-[4-[2-(4-pyridine-2-ylbenzoylamino)ethoxy]phenyl]propionic acid]	42%
CC(Cc1ccc(OCCNC(=O)c2ccc(-c3ccccn3)cc2)cc1)(Oc1ccccc1)C(=O)O (centres unmarked) [Example 16, 2-Methyl-2-phenoxy-3-[4-[2-(4-pyridine-2-ylbenzoylamino)ethoxy]phenyl]propionic acid]	64%
CC(C)c1ccc(OC(C)(Cc2ccc(OCCNC(=O)c3ccc(-c4ccccn4)cc3)cc2)C(=O)O)cc1 (centres unmarked) [Example 18, 2-(4-Isopropylphenoxy)-2-methyl-3-[4-[2-(4-pyridine-2-ylbenzoylamino)ethoxy]phenyl]propionic acid]	68%
CCCCC(Cc1ccc(OCCNC(=O)c2ccc(-c3ccccc3)cc2)cc1)C(=O)O (centres unmarked) [Example 22, 3-[4-[2-(Biphenyl-4-carbonylamino)ethoxy]phenyl]-2-butylpropionic acid]	17%
CCCCC(Cc1ccc(OCCNC(=O)c2ccc(-c3ccc(C=O)cc3)cc2)cc1)C(=O)O (centres unmarked) [Example 27, 2-Butyl-3-[4-[2-(4′-formylbiphenyl-4-carbonylamino)ethoxy]phenyl]propionic acid]	35%
CCCCC(Cc1ccc(OCCNC(=O)c2ccc(-c3ccc(CN(C)C)cc3)cc2)cc1)C(=O)O (centres unmarked) [Example 29, 2-Butyl-3-[4-[2-(4′-dimethylaminomethylbiphenyl-4-carbonyl-amino)ethoxy]phenyl]propionic acid]	20%
CCCCC(Cc1ccc(OCCNC(=O)c2ccc(-c3ccc(C(=O)O)cc3)cc2)cc1)C(=O)O (centres unmarked) [Example 30, 2-Butyl-3-[4-[2-(4′-carboxybiphenyl-4-carbonylamino)ethoxy]phenyl]propionic acid]	18%
CCCCC(Cc1ccc(OCCNC(=O)c2ccc(-c3cccc(OC)c3)cc2)cc1)C(=O)O (centres unmarked) [Example 32, 2-Butyl-3-[4-[2-(3′-methoxybiphenyl-4-carbonylamino)ethoxy]phenyl]propionic acid]	21%
CCCCC(Cc1ccc(OCCNC(=O)c2ccc(-c3cccc(O)c3)cc2)cc1)C(=O)O (centres unmarked) [Example 34, 2-Butyl-3-[4-[2-(3′-hydroxybiphenyl-4-carbonylamino)ethoxy]phenyl]propionic acid]	22%
CCCCC(Cc1ccc(OCCNC(=O)c2ccc(-c3ccccc3OC)cc2)cc1)C(=O)O (centres unmarked) [Example 43, 2-Butyl-3-[4-[2-(2′-methoxybiphenyl-4-carbonylamino)ethoxy]phenyl]propionic acid]	20%
CCCCC(Cc1ccc(OCCNC(=O)c2ccc(-c3cc(C)c(O)c(C)c3)cc2)cc1)C(=O)O (centres unmarked) [Example 48, Sodium 2-butyl-3-[4-[2-(4′-hydroxy-3′, 5′-dimethylbiphenyl-4-carbonylamino)ethoxy]phenyl]propionate]	37%
CCCCC(Cc1ccc(OCCNC(=O)c2ccc(OC)nc2)cc1)C(=O)O (centres unmarked) [Example 52, 2-Butyl-3-[4-[2-(2-methoxypyridine-5-carbonylamino)ethoxy]phenyl]propionic acid]	20%
CCCCC(Cc1ccc(OCCCNC(=O)c2ccc(-c3ccccn3)cc2)cc1)C(=O)O (centres unmarked) [Example 70, 2-Butyl-3-[4-[3-(4-pyridine-2-ylbenzoylamino)propoxy]phenyl]propionic acid]	23%
CCCC(Cc1ccc(OCCNC(=O)c2ccc(-c3ccccn3)cc2)cc1)C(=O)O (centres unmarked) [Example 74, 2-Propyl-3-[4-[2-(4-pyridine-2-ylbenzoylamino)ethoxy]phenyl]propionic acid]	60%
O=C(NCCOc1ccc(CC(Oc2ccccc2)C(=O)O)cc1)c1ccc(-c2ccccc2)cc1 (centres unmarked) [Example 76, 3-[4-[2-(Biphenyl-4-carbonylamino)ethoxy]phenyl]-2-phenoxypropionic acid]	50%
O=C(NCCOc1ccc(CC(Oc2ccccc2)C(=O)O)cc1)c1ccc(-c2ccc(F)cc2)cc1 (centres unmarked) [Example 78, 3-[4-[2-(4′-Fluorobiphenyl-4-carbonylamino)ethoxy]phenyl]-2-phenoxypropionic acid]	53%
O=C(NCCOc1ccc(CC(Oc2ccccc2)C(=O)O)cc1)c1ccc(-c2ccc(Cl)cc2)cc1 (centres unmarked) [Example 80, 3-[4-[2-(4′-Chlorobiphenyl-4-carbonylamino)ethoxy]phenyl]-2-phenoxypropionic acid]	50%
O=C(NCCOc1ccc(CC(Oc2ccccc2)C(=O)O)cc1)c1ccc(-c2ccc(C(F)(F)F)cc2)cc1 (centres unmarked) [Example 82, 3-[4-[2-(4′-Trifluoromethylbiphenyl-4-carbonylamino)ethoxy]phenyl]-2-phenoxypropionic acid]	32%
CC(C)c1ccc(OC(Cc2ccc(OCCNC(=O)c3ccc(-c4ccccc4)nc3)cc2)C(=O)O)cc1 (centres unmarked) [Example 97, 2-(4-Isopropylphenoxy)-3-[4-[2-(2-phenylpyridine-5-carbonylamino)ethoxy]phenyl]propionic acid]	66%
COc1ccc(-c2ccc(C(=O)NCCOc3ccc(CC(Oc4ccc(C(C)C)cc4)C(=O)O)cc3)cn2)cc1 (centres unmarked) [Example 99, 2-(4-Isopropylphenoxy)-3-[4-[2-[2-(4-methoxyphenyl)pyridine-5-carbonylamino]ethoxy]phenyl]propionic acid]	57%
CC(C)c1ccc(OC(Cc2ccc(OCCNC(=O)c3ccc(-c4ccc(F)cc4)nc3)cc2)C(=O)O)cc1 (centres unmarked) [Example 101, 3-[4-[2-[2-(4-Fluorophenyl)pyridine-5-carbonylamino]ethoxy]phenyl]-2-(4-isopropylphenoxy)propionic acid]	51%

Same assay, conditions: compound admixed with powder feed at 0.01% (ca. 10 mg/kg/day) for three days, plasma glucose vs control group

Structure (SMILES)	Rate of hypoglycemic activity (%) (blood glucose depression rate)
O=C(NCCOc1ccc(CC(Oc2ccccc2)C(=O)O)cc1)c1ccc(-c2ccccn2)cc1 (centres unmarked) [Example 8, 2-Phenoxy-3-[4-[2-(4-pyridine-2-ylbenzoylamino)ethoxy]phenyl]propioric acid]	22%
CCCCC(Cc1ccc(OCCNC(=O)c2ccc(N(CC)CC)cc2)cc1)C(=O)O (centres unmarked) [Example 62, 2-Butyl-3-[4-[2-(4-N,N-dietylaminobenzoylamino)ethoxy]phenyl]propionic acid]	16%
